Measurements taken from PubChem BioAssay (NCI).
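Compound exposure: 48 hours, 5 concentrations, 96-well plates. TGI denotes the concentration required for complete inhibition of growth.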

Assays:
Assay in all cases: DTP human tumour cell line panel, 48 h
SW-620 colon = test system: SW-620 colon
SK-MEL-28 melanoma = test system: SK-MEL-28 melanoma
HL-60(TB) leukemia = test system: HL-60(TB) leukemia
HCT-15 colon = test system: HCT-15 colon
SK-MEL-2 melanoma = test system: SK-MEL-2 melanoma
UO-31 renal = test system: UO-31 renal
HS 578T breast = test system: HS 578T breast
HCT-116 colon = test system: HCT-116 colon
ACHN renal = test system: ACHN renal
LOX IMVI melanoma = test system: LOX IMVI melanoma
M14 melanoma = test system: M14 melanoma
NCI-H23 lung = test system: NCI-H23 lung
OVCAR-8 ovarian = test system: OVCAR-8 ovarian
KM12 colon = test system: KM12 colon
SNB-75 CNS = test system: SNB-75 CNS
SK-OV-3 ovarian = test system: SK-OV-3 ovarian
MDA-MB-231 breast = test system: MDA-MB-231 breast
MDA-MB-435 = test system: MDA-MB-435
SF-539 CNS = test system: SF-539 CNS
T-47D breast = test system: T-47D breast
IGROV1 ovarian = test system: IGROV1 ovarian
SNB-19 CNS = test system: SNB-19 CNS
OVCAR-5 ovarian = test system: OVCAR-5 ovarian
MDA-N = test system: MDA-N
K-562 leukemia = test system: K-562 leukemia
BT-549 breast = test system: BT-549 breast
OVCAR-3 ovarian = test system: OVCAR-3 ovarian
DU-145 prostate = test system: DU-145 prostate
NCI-H226 lung = test system: NCI-H226 lung
MOLT-4 leukemia = test system: MOLT-4 leukemia
SF-295 CNS = test system: SF-295 CNS
TK-10 renal = test system: TK-10 renal
UACC-62 melanoma = test system: UACC-62 melanoma
COLO 205 colon = test system: COLO 205 colon
MALME-3M melanoma = test system: MALME-3M melanoma
SK-MEL-5 melanoma = test system: SK-MEL-5 melanoma
UACC-257 melanoma = test system: UACC-257 melanoma
U251 CNS = test system: U251 CNS
HT29 colon = test system: HT29 colon
A498 renal = test system: A498 renal
SF-268 CNS = test system: SF-268 CNS
CAKI-1 renal = test system: CAKI-1 renal
PC-3 prostate = test system: PC-3 prostate
RXF 393 renal = test system: RXF 393 renal
RPMI-8226 leukemia = test system: RPMI-8226 leukemia
CCRF-CEM leukemia = test system: CCRF-CEM leukemia
786-0 renal = test system: 786-0 renal
MCF7 breast = test system: MCF7 breast
EKVX NSCLC = test system: EKVX NSCLC
SN12C renal = test system: SN12C renal
NCI/ADR-RES ovarian = test system: NCI/ADR-RES ovarian
NCI-H522 lung = test system: NCI-H522 lung
OVCAR-4 ovarian = test system: OVCAR-4 ovarian
HCC-2998 colon = test system: HCC-2998 colon
HOP-62 NSCLC = test system: HOP-62 NSCLC
NCI-H460 lung = test system: NCI-H460 lung
HOP-92 NSCLC = test system: HOP-92 NSCLC
A549 NSCLC = test system: A549 NSCLC

O=C(c1ccc(Cl)cc1)N(C(=O)N1CCC(c2ccccc2)CC1)c1ccccc1 was tested, and the TGI (SW-620 colon) was > 100 µM, the TGI (SK-MEL-28 melanoma) was > 100 µM and the TGI (HL-60(TB) leukemia) was 61.5 µM. For the same compound, the TGI (HCT-15 colon) was > 100 µM, the TGI (SK-MEL-2 melanoma) was > 100 µM and the TGI (UO-31 renal) was 98.7 µM. The TGI (HS 578T breast) was > 100 µM, the TGI (HCT-116 colon) was > 100 µM and the TGI (ACHN renal) was > 100 µM. For the same compound, the TGI (LOX IMVI melanoma) was > 100 µM, the TGI (M14 melanoma) was 88.2 µM and the TGI (NCI-H23 lung) was > 100 µM. The TGI (OVCAR-8 ovarian) was > 100 µM, the TGI (KM12 colon) was 44.6 µM and the TGI (SNB-75 CNS) was 9.27 µM. The TGI (SK-OV-3 ovarian) was > 100 µM, the TGI (MDA-MB-231 breast) was > 100 µM and the TGI (MDA-MB-435) was > 100 µM. The TGI (SF-539 CNS) was > 100 µM, the TGI (T-47D breast) was 49.3 µM and the TGI (IGROV1 ovarian) was > 100 µM. For the same compound, the TGI (SNB-19 CNS) was > 100 µM, the TGI (OVCAR-5 ovarian) was 57.3 µM and the TGI (MDA-N) was > 100 µM. For the same compound, the TGI (K-562 leukemia) was > 100 µM, the TGI (BT-549 breast) was 73.6 µM and the TGI (OVCAR-3 ovarian) was > 100 µM. For the same compound, the TGI (DU-145 prostate) was > 100 µM, the TGI (NCI-H226 lung) was 99.7 µM and the TGI (MOLT-4 leukemia) was 57.1 µM. The TGI (SF-295 CNS) was > 100 µM, the TGI (TK-10 renal) was > 100 µM and the TGI (UACC-62 melanoma) was > 100 µM. For the same compound, the TGI (COLO 205 colon) was > 100 µM, the TGI (MALME-3M melanoma) was 84.6 µM and the TGI (SK-MEL-5 melanoma) was 35.2 µM. For the same compound, the TGI (UACC-257 melanoma) was 83 µM, the TGI (U251 CNS) was > 100 µM and the TGI (HT29 colon) was > 100 µM. For the same compound, the TGI (A498 renal) was 96.5 µM, the TGI (SF-268 CNS) was > 100 µM and the TGI (CAKI-1 renal) was > 100 µM. The TGI (PC-3 prostate) was 73.8 µM, the TGI (RXF 393 renal) was 62.5 µM and the TGI (RPMI-8226 leukemia) was 52.3 µM. For the same compound, the TGI (CCRF-CEM leukemia) was 77.4 µM, the TGI (786-0 renal) was > 100 µM and the TGI (MCF7 breast) was > 100 µM. For the same compound, the TGI (EKVX NSCLC) was 69 µM, the TGI (SN12C renal) was > 100 µM and the TGI (NCI/ADR-RES ovarian) was > 100 µM.
In the case of CN(C)CCN(C)c1ccc2c(=O)n(CCN(C)C)c(=O)n3c4ccccc4c(=O)c1c23, the TGI (SW-620 colon) is reported as 8.34 µM, the TGI (SK-MEL-28 melanoma) is reported as 6.81 µM and the TGI (NCI-H522 lung) is reported as 2.8 µM. It also gave a TGI (HCT-15 colon) of 10.8 µM, a TGI (SK-MEL-2 melanoma) of 6.84 µM and a TGI (UO-31 renal) of 2.62 µM. For the same compound, the TGI (HS 578T breast) was 8.65 µM, the TGI (HCT-116 colon) was 3.14 µM and the TGI (ACHN renal) was 0.849 µM. It also gave a TGI (LOX IMVI melanoma) of 5.53 µM, a TGI (M14 melanoma) of 6.68 µM and a TGI (OVCAR-4 ovarian) of 2.27 µM. For the same compound, the TGI (NCI-H23 lung) was 2.23 µM, the TGI (OVCAR-8 ovarian) was 7.15 µM and the TGI (KM12 colon) was 8.08 µM. The TGI (SNB-75 CNS) was 3.5 µM, the TGI (HCC-2998 colon) was 2.05 µM and the TGI (SK-OV-3 ovarian) was 16.7 µM. For the same compound, the TGI (MDA-MB-231 breast) was 4.23 µM, the TGI (MDA-MB-435) was 3.18 µM and the TGI (HOP-62 NSCLC) was 1.47 µM. It also gave a TGI (SF-539 CNS) of 2.15 µM, a TGI (T-47D breast) of 9.77 µM and a TGI (IGROV1 ovarian) of 8.02 µM. The TGI (SNB-19 CNS) was 9.7 µM, the TGI (OVCAR-5 ovarian) was 12.1 µM and the TGI (MDA-N) was 2.89 µM. For the same compound, the TGI (BT-549 breast) was 15 µM, the TGI (OVCAR-3 ovarian) was 12.6 µM and the TGI (NCI-H460 lung) was 2.23 µM. For the same compound, the TGI (DU-145 prostate) was 1.3 µM, the TGI (NCI-H226 lung) was 1.59 µM and the TGI (MOLT-4 leukemia) was 0.135 µM. It also gave a TGI (SF-295 CNS) of 8.38 µM, a TGI (TK-10 renal) of 5.43 µM and a TGI (UACC-62 melanoma) of 2.6 µM. It also gave a TGI (COLO 205 colon) of 3.03 µM, a TGI (MALME-3M melanoma) of 3 µM and a TGI (SK-MEL-5 melanoma) of 2.71 µM. For the same compound, the TGI (UACC-257 melanoma) was 4.73 µM, the TGI (U251 CNS) was 8.93 µM and the TGI (HT29 colon) was 3.73 µM. For the same compound, the TGI (HOP-92 NSCLC) was 1.82 µM, the TGI (A498 renal) was 5.36 µM and the TGI (SF-268 CNS) was 0.559 µM. It also gave a TGI (A549 NSCLC) of 22.7 µM, a TGI (CAKI-1 renal) of 1.08 µM and a TGI (PC-3 prostate) of 21.3 µM. It also gave a TGI (RXF 393 renal) of 11.2 µM, a TGI (RPMI-8226 leukemia) of 3.32 µM and a TGI (CCRF-CEM leukemia) of 0.293 µM. For the same compound, the TGI (786-0 renal) was 10.2 µM, the TGI (MCF7 breast) was 11.3 µM and the TGI (EKVX NSCLC) was 6.92 µM. For the same compound, the TGI (SN12C renal) was 2.64 µM and the TGI (NCI/ADR-RES ovarian) was 16.9 µM.
